In paper PMC4567993, “A Novel Trypsin Inhibitor-Like Cysteine-Rich Peptide from the Frog Lepidobatrachus laevis Containing Proteinase-Inhibiting Activity” (Natural Products and Bioprospecting, 2015):
pKi: −log10 of the molar value. One block for each substance: values may come before it. No end group written: not given here.

Tests used:
trypsin = experiment: Trypsin inhibition, chromogenic substrate (serine protease inhibitory testing); format: biochemical; settings: for Reciprocal reaction velocity of trypsin, 1/V av / Reaction velocity of trypsin, V av: pH 7.8, 37 °C, means of three duplicate experiments
Protocol: (§1) Effects of the tested samples on the hydrolysis of synthetic chromogenic substrates by different serine proteases were assayed in 0.05 M Tris–HCl, pH 7.8 (for trypsin, Sigma T4665; thrombin, Sigma T4393; chymotrypsin, Sigma C4129; elastase, Sigma E1250; plasmin, Sigma P1867) or pH 8.45 (for substilisin, Sigma P5380) buffer at 37 °C. The protease (trypsin, 10 nM; thrombin, 10 nM; chymotrypsin, 21 nM; elastase, 23 nM and substilisin, 30 nM) and different amounts of LL-TIL (final concentrations ranging from 0.0 to 20 μM) were pre-incubated for 10 min at 37 °C. […] The formation of p-nitroaniline was monitored continuously at 405 for 2 min. For chymotrypsin, the reaction was monitored at 253 nm. The inhibition constant Ki was determined according to the reported method.

thrombin = experiment: Thrombin inhibition, chromogenic substrate; format: biochemical; settings: thrombin 10 nM; 0.05 M Tris-HCl pH 7.8, 37 °C; LL-TIL 0.0 to 20 μM; pre-incubated 10 min; data not shown
From the text: (§2) Presently, the biological role of proteinase inhibitory peptides in amphibian skins is explained mainly by two hypotheses. One is that several enzymes are involved in peptide precursor processing or peptide degradation in the skin and proteinase inhibitors negatively modulate the activity of these proteases to avoid premature degradation or release of skin peptides. The other hypothesis is that the peptides are surface anti-infective agent similar to AMPs because they inhibit extracellular proteases produced by invading bacteria. […] Further work is needed to address this issue.
as §1

chymotrypsin [1] = experiment: Chymotrypsin inhibition, chromogenic substrate; format: biochemical; settings: chymotrypsin 21 nM; 0.05 M Tris-HCl pH 7.8, 37 °C; monitored at 253 nm; LL-TIL 0.0 to 20 μM; pre-incubated 10 min; data not shown
From the text: as §2, §1

elastase [2] = experiment: Elastase inhibition, chromogenic substrate; format: biochemical; settings: elastase 23 nM; 0.05 M Tris-HCl pH 7.8, 37 °C; LL-TIL 0.0 to 20 μM; pre-incubated 10 min; data not shown
From the text: as §2, §1

plasmin = experiment: Plasmin inhibition, chromogenic substrate; format: biochemical; settings: 0.05 M Tris-HCl pH 7.8, 37 °C; LL-TIL 0.0 to 20 μM; pre-incubated 10 min; data not shown
From the text: as §2, §1

substilisin = experiment: Substilisin inhibition, chromogenic substrate; format: biochemical; settings: substilisin 30 nM; pH 8.45, 37 °C; LL-TIL 0.0 to 20 μM; pre-incubated 10 min; data not shown
From the text: as §2, §1

[3] = system: Bacillus subtilis (ATCC 6633); experiment: Antimicrobial assay (MIC); format: cell-based; settings: recombinant LL-TIL, data not shown
Protocol: (§3) For antimicrobial assays, several microorganisms including Gram positive bacterium S. aureus (ATCC 25923), […] and fungus C. albicans (ATCC 20032) were obtained from Kunming Medical College. They were first grown in LB (Luria–Bertani) broth or yeast extract–peptone–dextrose broth as our previous methods. MIC (minimal inhibitory concentration) of tested sample against these microorganisms was determined as previous reports. The MIC is defined as the lowest concentration of tested sample to inhibit microorganism growth.

[4] = system: Candida albicans (ATCC 20032); experiment: Antimicrobial assay (MIC); format: cell-based; settings: recombinant LL-TIL, ATCC 20032, fungus, data not shown
Protocol: as §3

[5] = system: Escherichia coli (ATCC 25922); experiment: Antimicrobial assay (MIC); format: cell-based; settings: recombinant LL-TIL, ATCC 25922, Gram-negative, data not shown
Protocol: as §3

[6] = system: Staphylococcus aureus (ATCC 25923); experiment: Antimicrobial assay (MIC); format: cell-based; settings: recombinant LL-TIL, ATCC 25923, Gram positive, data not shown
Protocol: as §3

microorganisms = experiment: Antimicrobial assay, overall statement; format: cell-based; settings: recombinant LL-TIL; S. aureus, E. coli, B. subtilis, C. albicans tested
Protocol: as §3

elastase [7] = system: elastase; parameters: method as in 3 sources, ref [14] = [14]; PMID 23533574; doi:10.1371/journal.pone.0057529; 14. Chen ZY Wang B Hu J Yang WS Cao ZJ Zhuo RX Li W Wu Y PLoS ONE 2013 8 e57529 10.1371/journal.pone.0057529 23533574 PMC3606364 ||| ref [15] = [15]; PMID 16191451; doi:10.1016/j.peptides.2005.07.013; 15. Fogaca AC Almeida IC Eberlin MN Tanaka AS Bulet P Daffre S Peptides 2006 27 667 674 10.1016/j.peptides.2005.07.013 16191451 ||| ref [20] = [20]; PMID 23200835; doi:10.1016/j.bbrc.2012.11.056; 20. Kim BY Lee KS Wan H Zou FM Choi YS Yoon HJ Kwon HW Je YH Jin BR Biochem. Biophys. Res. Commun. 2013 430 144 149 10.1016/j.bbrc.2012.11.056 23200835; settings: ref [15]; cited from earlier work
chymotrypsin [8] = system: chymotrypsin; parameters: method as in 2 sources, one per row (each row's own in cited_ref): ref [15] = [15]; PMID 16191451; doi:10.1016/j.peptides.2005.07.013; 15. Fogaca AC Almeida IC Eberlin MN Tanaka AS Bulet P Daffre S Peptides 2006 27 667 674 10.1016/j.peptides.2005.07.013 16191451 ||| ref [20] = [20]; PMID 23200835; doi:10.1016/j.bbrc.2012.11.056; 20. Kim BY Lee KS Wan H Zou FM Choi YS Yoon HJ Kwon HW Je YH Jin BR Biochem. Biophys. Res. Commun. 2013 430 144 149 10.1016/j.bbrc.2012.11.056 23200835; settings: ref [15]; cited from earlier work
[9] = parameters: method as in PMID 16191451; settings: ref [15]; cited from earlier work
trypsin (Sigma T4665) = experiment: enzyme inhibition kinetics (chromogenic substrate, Dixon plot); trypsin 10 nM pre-incubated with LL-TIL for 10 min at 37 °C in 0.05 M Tris-HCl, pH 7.8; reaction started with substrate B-3133; p-nitroaniline followed at 405 for 2 min; Ki by Dixon plot from velocities at [S] = 0.2 and 0.4 mM

Substance: IRCPKDKIYKFCGSPCPPSCKDLTPNCIAVCKKGCFCRDGTVDNNHGKCVKKENC (disulfide (positions not given here)) [LL-TIL]
- inhibition of trypsin (in words) (trypsin; 0.05 M Tris-HCl pH 7.8, 37 °C, trypsin 10 nM, LL-TIL 0.0 to 20 μM): inhibited the activity of trypsin
- Reciprocal reaction velocity of trypsin, 1/V av (trypsin; [I] = 12.987 μM, [S] = 0.2 mM, 1/V av at [I] 0: 3.7864): 5.2826
- Reaction velocity of trypsin, V av (trypsin; [I] = 12.987 μM, [S] = 0.2 mM, V av at [I] 0: 0.2641): 0.1893
- Reciprocal reaction velocity of trypsin, 1/V av (trypsin; [I] = 12.987 μM, [S] = 0.4 mM, 1/V av at [I] 0: 2.7352): 3.8700
- Reaction velocity of trypsin, V av (trypsin; [I] = 12.987 μM, [S] = 0.4 mM, V av at [I] 0: 0.3656): 0.2584
- Reciprocal reaction velocity of trypsin, 1/V av (trypsin; [I] = 25.974 μM, [S] = 0.2 mM, 1/V av at [I] 0: 3.7864): 7.3116
- Reaction velocity of trypsin, V av (trypsin; [I] = 25.974 μM, [S] = 0.2 mM, V av at [I] 0: 0.2641): 0.1368
- Reciprocal reaction velocity of trypsin, 1/V av (trypsin; [I] = 25.974 μM, [S] = 0.4 mM, 1/V av at [I] 0: 2.7352): 4.8481
- Reaction velocity of trypsin, V av (trypsin; [I] = 25.974 μM, [S] = 0.4 mM, V av at [I] 0: 0.3656): 0.2063
- pKi (trypsin; recombinant LL-TIL, trypsin 10 nM, 0.05 M Tris-HCl pH 7.8, 37 °C, pre-incubated 10 min, chromogenic substrate B-3133, p-nitroaniline at 405 for 2 min, Dixon plot, [S] 0.2 and 0.4 mM): 4.78
- inhibition of hydrolysis of chromogenic substrate by thrombin (thrombin): did not inhibit
- inhibition of hydrolysis of chromogenic substrate by chymotrypsin (chymotrypsin [1]): did not inhibit
- inhibition of hydrolysis of chromogenic substrate by elastase (elastase [2]): did not inhibit
- inhibition of hydrolysis of chromogenic substrate by plasmin (plasmin): did not inhibit
- inhibition of hydrolysis of chromogenic substrate by substilisin (substilisin): did not inhibit
- antimicrobial ability against B. subtilis [3]: no antimicrobial abilities
- antimicrobial ability against C. albicans [4]: no antimicrobial abilities
- antimicrobial ability against E. coli [5]: no antimicrobial abilities
- antimicrobial ability against S. aureus [6]: no antimicrobial abilities
- antimicrobial activity (overall) (microorganisms): no antimicrobial activity

Substance: Ixodidin: from hemocytes of the cattle tick
- inhibition of elastase (elastase [7]): able to inhibit
- inhibition of chymotrypsin (chymotrypsin [8]): able to inhibit
- antimicrobial activity [9]: weak antimicrobial activities

- pKi (trypsin (Sigma T4665)): 4.78
Substance: LL-TIL (trypsin inhibitor-like cysteine-rich peptide from Lepidobatrachus laevis), recombinant mature peptide
